In US6355620B1, “C-2 modified erythromycin derivatives” (Abbott Laboratories, priority 1999, dated 2002):

What was measured:
Test in all cases: In vitro antibacterial activity, agar dilution MIC
Assay type in all cases: cell-based
Escherichiacoli JUHL = details: code QQ, BHI agar, 35-37° C., 20 to 24 hours, unit assumed
Method: (§1) Representative compounds of the present invention were assayed in vitro for antibacterial activity as follows: Twelve petri dishes containing successive aqueous dilutions of the test compound mixed with 10 mL of sterilized Brain Heart Infusion (BHI) agar (Difco 0418-01-5) were prepared. Each plate was inoculated with 1:100 (or 1:10 for slow-growing strains, such as Micrococcus and Streptococcus) dilutions of up to 32 different microorganisms, using a Steers replicator block. The inoculated plates were incubated at 35-37° C. for 20 to 24 hours. In addition, a control plate, using BHI agar containing no test compound, was prepared and incubated at the beginning and end of each test.
(§2) An additional plate containing a compound having known susceptibility patterns for the organisms being tested and belonging to the same antibiotic class as the test compound was also prepared and incubated as a further control, as well as to provide test-to-test comparability.
(§3) After incubation, each plate was visually inspected. The minimum inhibitory concentration (MIC) was defined as the lowest concentration of drug yielding no growth, a slight haze, or sparsely isolated colonies on the inoculum spot as compared to the growth control.

[1] = system: Haemophilislnfluenzae DILL AMP R; details: code WW, BHI agar, 35-37° C., 20 to 24 hours, unit assumed
Method: as §1, §2, §3

[2] = system: Streptococcus pyogenes PIU 2548; details: code NN, BHI agar, 35-37° C., 20 to 24 hours, unit assumed
Method: as §1, §2, §3

[3] = system: Streptococcus bovis A-5169; details: code JJ, BHI agar, 35-37° C., 20 to 24 hours, unit assumed
Method: as §1, §2, §3

[4] = system: Staphylococcus aureus A-5278; details: code CC, BHI agar, 35-37° C., 20 to 24 hours, unit assumed
Method: as §1, §2, §3

[5] = system: Streptococcus Pneumonia GYR 1171; details: code YY, BHI agar, 35-37° C., 20 to 24 hours, unit assumed
Method: as §1, §2, §3

[6] = system: Streptococcus pyogenes EES61; details: code LL, BHI agar, 35-37° C., 20 to 24 hours, unit assumed
Method: as §1, §2, §3

[7] = system: Staphylococcus aureus NCTC 10649M; details: code EE, BHI agar, 35-37° C., 20 to 24 hours, unit assumed
Method: as §1, §2, §3

[8] = system: Micrococcusluteus ATCC 4698; details: code PP, BHI agar, 35-37° C., 20 to 24 hours, unit assumed
Method: as §1, §2, §3

Escherichiacoli SS = details: code RR, BHI agar, 35-37° C., 20 to 24 hours, unit assumed
Method: as §1, §2, §3

[9] = system: Staphylococcus epidermidis 3519; details: code HH, BHI agar, 35-37° C., 20 to 24 hours, unit assumed
Method: as §1, §2, §3

[10] = system: Staphylococcus aureus A-5177; details: code BB, BHI agar, 35-37° C., 20 to 24 hours, unit assumed
Method: as §1, §2, §3

[11] = system: Streptococcus pyogenes 930; details: code MM, BHI agar, 35-37° C., 20 to 24 hours, unit assumed
Method: as §1, §2, §3

[12] = system: Micrococcusluteus ATCC 9341; details: code OO, BHI agar, 35-37° C., 20 to 24 hours, unit assumed
Method: as §1, §2, §3

[13] = system: Staphylococcus aureus CMX 642A; details: code DD, BHI agar, 35-37° C., 20 to 24 hours, unit assumed
Method: as §1, §2, §3

[14] = system: Staphylococcus aureus CMX 553; details: code FF, BHI agar, 35-37° C., 20 to 24 hours, unit assumed
Method: as §1, §2, §3

[15] = system: Staphylococcus aureus ATCC 6538P; details: code AA, BHI agar, 35-37° C., 20 to 24 hours, unit assumed
Method: as §1, §2, §3

[16] = system: Streptococcus Pneumonia 5649; details: code ZZA, BHI agar, 35-37° C., 20 to 24 hours, unit assumed
Method: as §1, §2, §3

[17] = system: Enterococcusfaecium ATCC X043; details: code II, BHI agar, 35-37° C., 20 to 24 hours, unit assumed
Method: as §1, §2, §3

[18] = system: Streptococcus Pneumonia 5979; details: code ZZ, BHI agar, 35-37° C., 20 to 24 hours, unit assumed
Method: as §1, §2, §3

Candida albicans CCH 442 = details: code TT, BHI agar, 35-37° C., 20 to 24 hours, unit assumed
Method: as §1, §2, §3

[19] = system: Mycobacterium smegmatis ATCC 114; details: code UU, BHI agar, 35-37° C., 20 to 24 hours, unit assumed
Method: as §1, §2, §3

[20] = system: Streptococcus Pneumonia ATCC 6303; details: code XX, BHI agar, 35-37° C., 20 to 24 hours, unit assumed
Method: as §1, §2, §3

[21] = system: Staphylococcus aureus 1775; details: code GG, BHI agar, 35-37° C., 20 to 24 hours, unit assumed
Method: as §1, §2, §3

[22] = system: Streptococcus agalactiae CMX 508; details: code KK, BHI agar, 35-37° C., 20 to 24 hours, unit assumed
Method: as §1, §2, §3

[23] = system: Nocardia Asteroides ATCC 99700; details: code VV, BHI agar, 35-37° C., 20 to 24 hours, unit assumed
Method: as §1, §2, §3

Escherichiacoli DC-2 = details: code SS, BHI agar, 35-37° C., 20 to 24 hours, unit assumed
Method: as §1, §2, §3

Structure (SMILES)	Antibacterial Activity (MIC) (Escherichiacoli JUHL) [µg/mL]	Antibacterial Activity (MIC) [1] [µg/mL]	Antibacterial Activity (MIC) [2] [µg/mL]	Antibacterial Activity (MIC) [3] [µg/mL]	Antibacterial Activity (MIC) [4] [µg/mL]	Antibacterial Activity (MIC) [5] [µg/mL]	Antibacterial Activity (MIC) [6] [µg/mL]	Antibacterial Activity (MIC) [7] [µg/mL]	Antibacterial Activity (MIC) [8] [µg/mL]	Antibacterial Activity (MIC) (Escherichiacoli SS) [µg/mL]	Antibacterial Activity (MIC) [9] [µg/mL]	Antibacterial Activity (MIC) [10] [µg/mL]	Antibacterial Activity (MIC) [11] [µg/mL]	Antibacterial Activity (MIC) [12] [µg/mL]	Antibacterial Activity (MIC) [13] [µg/mL]	Antibacterial Activity (MIC) [14] [µg/mL]	Antibacterial Activity (MIC) [15] [µg/mL]	Antibacterial Activity (MIC) [16] [µg/mL]	Antibacterial Activity (MIC) [17] [µg/mL]	Antibacterial Activity (MIC) (Candida albicans CCH 442) [µg/mL]	other results
CCC1OC(=O)C(C)(CC=Cc2ccccc2)C(=O)C(C)C(OC2OC(C)CC(N(C)C)C2O)C(C)(OC)CC(C)C(=O)C(C)C2NC(=O)OC12C (centres unmarked) [Example 1, Compound of formula (II): R^a is CH3, R^b is H, Y and Z together are O, T is —NH—, R is —CH2CH═CH-(phenyl)]	> 100	> 128	12.5	12.5	100	4	12.5	50	6.2	50	50	25	50	3.1	25	50	25	16	25	100	Antibacterial Activity (MIC) [18]: 64 µg/mL; Antibacterial Activity (MIC) [19]: 25 µg/mL; Antibacterial Activity (MIC) [20]: 8 µg/mL; Antibacterial Activity (MIC) [21]: 100 µg/mL; Antibacterial Activity (MIC) [22]: 12.5 µg/mL; Antibacterial Activity (MIC) [23]: 25 µg/mL; Antibacterial Activity (MIC) (Escherichiacoli DC-2): > 100 µg/mL
CC[C@H]1OC(=O)[C@H](C)[C@@H](O[C@H]2C[C@@](C)(OC)[C@@H](O)[C@H](C)O2)[C@H](C)[C@@H](O[C@@H]2O[C@H](C)C[C@H](N(C)C)[C@H]2O)[C@](C)(O)C[C@@H](C)C(=O)[C@H](C)[C@@H](O)[C@]1(C)O [Ery. A standard, Erythromycin A, reference compound]	> 100	4	6.2	0.02	> 100	0.06	0.05	0.39	0.2	0.78	0.39	3.1	> 100	0.05	0.39	0.39	0.2	16	0.05	> 100	Antibacterial Activity (MIC) [19]: 3.1 µg/mL; Antibacterial Activity (MIC) [20]: 0.06 µg/mL; Antibacterial Activity (MIC) [21]: > 100 µg/mL; Antibacterial Activity (MIC) [22]: 0.05 µg/mL; Antibacterial Activity (MIC) [23]: 0.1 µg/mL; Antibacterial Activity (MIC) (Escherichiacoli DC-2): > 100 µg/mL
